Measurements reported in ChEMBL document CHEMBL5143541, “Novel structural-related analogs of PFI-3 (SRAPs) that target the BRG1 catalytic subunit of the SWI/SNF complex increase the activity of temozolomide in glioblastoma cells” (Bioorg Med Chem, 2022).
Active and inactive are the calls of the source. The calls are words filed in the database; no cut-off is given here.

Tests used:
MT330 [1] = assay: Induction of cell death in human MT330 cells assessed as reduction in cell viability at 2 uM after 3 days by ELISA; type: functional, cell-based; conditions: time 3.0 day
MT330 [2] = assay: Induction of cell death in human MT330 cells assessed as reduction in cell viability at 2 uM combination with TMZ after 3 days by ELISA; type: functional, cell-based; conditions: time 3.0 day
LN-229 [3] = assay: Antiproliferative activity against human LN-229 cells assessed as reduction in cell viability at 2 uM up to 7 days by incucyte live cell assay; type: functional, cell-based; conditions: time <= 7.0 day
LN-229 [4] = assay: Antiproliferative activity against human LN-229 cells assessed as reduction in cell viability at 2 uM combination with TMZ up to 7 days by incucyte live cell assay; type: functional, cell-based; conditions: time <= 7.0 day
MT330 [5] = assay: Anti-tumor activity against human MT330 cells xenografted in NSG mouse assessed as reduction in tumor growth at 10 mg/kg, ip for alterate days combination with TMZ and measured after 2 weeks; type: functional, organism-based
MT330 [6] = assay: Anti-tumor activity against human MT330 cells xenografted in NSG mouse assessed as reduction in tumor growth at 10 mg/kg, ip for alterate days combination with TMZ and measured after 8 weeks; type: functional, organism-based
MT330 [7] = assay: Induction of cell death in human MT330 cells assessed as reduction in cell viability at 50 uM after 3 days by ELISA; type: functional, cell-based; conditions: time 3.0 day
LN-229 [8] = assay: Antiproliferative activity against human LN-229 cells assessed as reduction in cell viability at 80 uM up to 7 days by incucyte live cell assay; type: functional, cell-based; conditions: time <= 7.0 day
[9] = target: SWI/SNF-related matrix-associated actin-dependent regulator of chromatin subfamily A member 4 (Homo sapiens) (UniProt P51532); assay: Binding affinity to epitope-tagged BRG1 bromodomain (unknown origin) expressed in MT330 cells assessed as thermostability at < 54.2 degC at 30 uM for 2 hrs by […]; type: cell-based
Sequence of SWI/SNF-related matrix-associated actin-dependent regulator of chromatin subfamily A member 4 (Homo sapiens) (P51532 whole entry): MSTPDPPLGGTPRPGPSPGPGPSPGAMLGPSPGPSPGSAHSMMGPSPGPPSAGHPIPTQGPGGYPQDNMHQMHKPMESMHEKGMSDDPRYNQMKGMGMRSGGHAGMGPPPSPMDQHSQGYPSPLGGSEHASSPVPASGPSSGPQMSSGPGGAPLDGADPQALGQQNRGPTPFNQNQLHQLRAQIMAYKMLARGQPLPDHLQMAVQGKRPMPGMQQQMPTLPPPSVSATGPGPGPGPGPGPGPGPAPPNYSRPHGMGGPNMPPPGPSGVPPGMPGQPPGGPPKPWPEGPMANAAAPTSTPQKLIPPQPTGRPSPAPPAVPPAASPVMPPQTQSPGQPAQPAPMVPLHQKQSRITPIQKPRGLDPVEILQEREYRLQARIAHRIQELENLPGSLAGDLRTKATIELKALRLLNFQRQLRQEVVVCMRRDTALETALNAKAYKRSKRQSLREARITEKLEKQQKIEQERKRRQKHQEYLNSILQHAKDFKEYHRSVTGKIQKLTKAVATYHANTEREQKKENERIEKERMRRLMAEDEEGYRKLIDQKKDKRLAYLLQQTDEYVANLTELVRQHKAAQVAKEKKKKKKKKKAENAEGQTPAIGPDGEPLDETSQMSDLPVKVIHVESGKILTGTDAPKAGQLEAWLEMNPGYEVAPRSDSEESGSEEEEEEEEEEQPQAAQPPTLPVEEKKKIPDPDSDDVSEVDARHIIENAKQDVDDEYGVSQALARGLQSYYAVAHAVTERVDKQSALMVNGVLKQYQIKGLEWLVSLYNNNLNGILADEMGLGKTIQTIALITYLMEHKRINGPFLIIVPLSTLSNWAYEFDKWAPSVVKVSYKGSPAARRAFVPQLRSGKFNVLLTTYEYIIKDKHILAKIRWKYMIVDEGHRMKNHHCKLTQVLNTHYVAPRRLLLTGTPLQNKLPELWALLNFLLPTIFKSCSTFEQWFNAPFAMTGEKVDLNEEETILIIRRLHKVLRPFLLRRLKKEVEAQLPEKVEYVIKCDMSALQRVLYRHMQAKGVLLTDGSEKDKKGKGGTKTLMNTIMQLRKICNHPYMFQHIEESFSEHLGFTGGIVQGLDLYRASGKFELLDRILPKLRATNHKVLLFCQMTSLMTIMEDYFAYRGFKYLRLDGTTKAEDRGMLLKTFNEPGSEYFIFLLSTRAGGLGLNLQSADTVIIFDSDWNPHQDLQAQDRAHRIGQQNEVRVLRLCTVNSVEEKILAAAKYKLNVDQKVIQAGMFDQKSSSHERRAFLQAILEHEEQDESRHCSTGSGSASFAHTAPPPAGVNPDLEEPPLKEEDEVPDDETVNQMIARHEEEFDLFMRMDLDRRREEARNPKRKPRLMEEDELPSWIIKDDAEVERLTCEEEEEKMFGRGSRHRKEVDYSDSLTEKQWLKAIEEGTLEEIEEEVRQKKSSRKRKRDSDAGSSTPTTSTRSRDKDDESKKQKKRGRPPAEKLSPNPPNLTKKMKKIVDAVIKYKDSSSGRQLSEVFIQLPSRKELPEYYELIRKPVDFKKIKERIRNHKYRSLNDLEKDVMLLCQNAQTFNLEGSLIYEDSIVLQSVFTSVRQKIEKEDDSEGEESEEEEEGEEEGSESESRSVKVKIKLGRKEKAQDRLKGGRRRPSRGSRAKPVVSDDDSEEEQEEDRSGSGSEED

Structure (SMILES)	Activity (MT330 [1])	Activity (MT330 [2])	further results
O=C(/C=C/N1C[C@H]2C[C@@H]1CN2c1ccccn1)c1ccc(Cl)cc1O	Active	Active	
O=C(/C=C/N1C[C@H]2C[C@@H]1CN2c1ccccn1)c1cc(Br)ccc1O	Active	Active	
O=C(/C=C/N1C[C@H]2C[C@@H]1CN2c1ccc(F)cc1)c1cc(F)ccc1O	Active	Active	
COc1ccc(N2C[C@H]3C[C@@H]2CN3/C=C/C(=O)c2ccccc2Cl)cc1	Active	Active	
COc1ccc(N2C[C@H]3C[C@@H]2CN3/C=C/C(=O)c2ccccc2O)cc1	Active	Active	
O=C(/C=C/N1C[C@H]2C[C@@H]1CN2c1ccccn1)c1cc(Br)cc(Br)c1O	Active	Active	Activity (LN-229 [3]): Active; Activity (LN-229 [4]): Active; TGI (MT330 [5]): Active; TGI (MT330 [6]): Active
O=C(/C=C/N1C[C@H]2C[C@@H]1CN2c1ccccn1)c1ccccc1Cl	Active	Active	
O=C(/C=C/N1C[C@H]2C[C@@H]1CN2c1ccc(F)cc1)c1ccccc1Cl	Active	Active	
Cn1nnc2c(C(N)=O)ncn2c1=O			Activity (MT330 [7]): Active; Activity (LN-229 [8]): Active
O=C(/C=C/N1C[C@H]2C[C@@H]1CN2c1ccc(F)cc1)c1ccccc1O	Active	Active	
O=C(/C=C/N1C[C@H]2C[C@@H]1CN2c1ccccn1)c1ccccc1O	Active	Active	Activity (LN-229 [3]): Active; Activity (LN-229 [4]): Active; Activity [9]: Active; TGI (MT330 [5]): Active; TGI (MT330 [6]): Active
O=C(/C=C/N1C[C@H]2C[C@@H]1CN2c1ccc(F)cc1)c1ccccc1	Active	Active	Activity (LN-229 [3]): Active; Activity (LN-229 [4]): Active; TGI (MT330 [5]): Active; TGI (MT330 [6]): Active
COc1ccc(N2C[C@H]3C[C@@H]2CN3/C=C/C(=O)c2cc(F)ccc2O)cc1	Active	Active	
O=C(/C=C/N1C[C@H]2C[C@@H]1CN2c1ccccn1)c1cc(F)ccc1O	Active	Active	
